Tests used:
Assay in all cases: relative viability (nuclei count vs DMSO), 5 days (fraction); higher = more cells survive
Trametinib + Palbociclib = compound: CC(=O)Nc1cccc(-n2c(=O)n(C3CC3)c(=O)c3c(Nc4ccc(I)cc4F)n(C)c(=O)c(C)c32)c1 [Trametinib] + CC(=O)c1c(C)c2cnc(Nc3ccc(N4CCNCC4)cn3)nc2n(C2CCCC2)c1=O [Palbociclib] (partner 0.5 µM)
Outline: (§1)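 Five library-drug doses in √10 steps were combined with a fixed anchor-drug dose, or a single drug was given alone, by pin tool to lung cancer cell lines in 1536-well plates the day after seeding. Nuclei were stained and counted after 5 days. Relative viability is the nuclei count in treated wells over that in vehicle wells, taken as the median of duplicate plates.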

[1] = compound: CN1C=C(C2=CC=CC=C21)/C=C\3/C4=C(C=CC=N4)NC3=O + CC(C)C[C@H](NC(=O)[C@H](Cc1ccccc1)NC(=O)c1cnccn1)B(O)O [Bortezomib] (partner 0.002 µM)
Outline: as §1

Trametinib + Lapatinib = compound: CC(=O)Nc1cccc(-n2c(=O)n(C3CC3)c(=O)c3c(Nc4ccc(I)cc4F)n(C)c(=O)c(C)c32)c1 [Trametinib] + CS(=O)(=O)CCNCc1ccc(-c2ccc3ncnc(Nc4ccc(OCc5cccc(F)c5)c(Cl)c4)c3c2)o1 [Lapatinib] (partner 2 µM)
Outline: as §1

[2] = compound: CN1C=C(C2=CC=CC=C21)/C=C\3/C4=C(C=CC=N4)NC3=O + COc1cc2c(Oc3ccc(NC(=O)C4(C(=O)Nc5ccc(F)cc5)CC4)cc3F)ccnc2cc1OCCCN1CCOCC1 [Foretinib] (partner 0.25 µM)
Outline: as §1

Cell Line	relative viability (Trametinib + Palbociclib; first compound 0.0025 µM)	relative viability (Trametinib + Palbociclib; first compound 0.007906 µM)	relative viability (Trametinib + Palbociclib; first compound 0.025 µM)	relative viability (Trametinib + Palbociclib; first compound 0.07906 µM)	relative viability (Trametinib + Palbociclib; first compound 0.25 µM)	relative viability ([1]; first compound 0.02 µM)	relative viability ([1]; first compound 0.06325 µM)	relative viability ([1]; first compound 0.2 µM)	relative viability ([1]; first compound 0.6325 µM)	relative viability ([1]; first compound 2 µM)	relative viability (Trametinib + Lapatinib; first compound 0.0025 µM)	relative viability (Trametinib + Lapatinib; first compound 0.007906 µM)	relative viability (Trametinib + Lapatinib; first compound 0.025 µM)	relative viability (Trametinib + Lapatinib; first compound 0.07906 µM)	relative viability (Trametinib + Lapatinib; first compound 0.25 µM)	relative viability ([2]; first compound 0.02 µM)	relative viability ([2]; first compound 0.06325 µM)	relative viability ([2]; first compound 0.2 µM)	relative viability ([2]; first compound 0.6325 µM)	relative viability ([2]; first compound 2 µM)
RERF-LC-KJ	1.03	0.857	0.914	0.848	0.66	1.24	1.11	0.994	0.958	0.974	0.812	0.822	0.79	0.744	0.568	0.924	0.938	0.867	0.859	0.779
NCI-H647	0.374	0.344	0.334	0.16	0.108	1.28	0.793	0.712	0.709	0.958	1.03	0.936	0.759	0.683	0.231	1.24	1.24	1.04	1.17	1.01
BEN	0.455	0.479	0.455	0.475	0.468	0.82	0.557	0.64	0.593	0.917	0.681	0.651		0.506	0.593	0.66	0.742		0.483	0.484
201T	0.344	0.321	0.284	0.322	0.272	1.02	1.18	1.07	1.16	1.09	1.06	0.922	0.93	0.879	0.928	1.27	1	0.983	0.773	0.713
LC-2-ad	0.5	0.452	0.461	0.381	0.404	1	0.942	0.964	0.971	0.965	0.917	0.839	0.664	0.639	0.285	0.901	0.843	0.864	1.03	0.931
LCLC-97TM1	0.166	0.141	0.15	0.13	0.115		0.444		0.521	0.517	0.666	0.944	0.666	0.3	0.138	0.891	0.793	0.91	1.03	0.921

— the supplement of paper PMC10307832
